Measurements as given in the supplement of paper PMC10627819.

Key:
S. aureus DSM 20231 [1] = assay: fitness (endpoint OD595 vs no drug) (fraction); higher = more growth
Method in brief: (§1)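 Each well of a 384-well plate received 30 µl of culture at OD595 0.01, or 55 µl for S. pneumoniae. TSB, LB Lennox or CY served as media at 37 °C. OD595 was taken every 30 min for 14 h and corrected by subtracting the first reading. Fitness is the optical density at stationary-phase entry divided by the robust mean of no-drug controls, capped at 1.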

S. aureus Newman [2] = assay: as above
Method in brief: as §1

S. pneumoniae D39V [3] = assay: as above
Method in brief: as §1

B. subtilis 168 = assay: Bliss interaction score (quartile over a dose matrix) (fitness difference); higher = more antagonism (negative = synergy)
Method in brief: (§2)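 The Bliss score takes observed fitness and subtracts the expected fitness, calculated as a product of single-drug fitness values. Those single-drug values were inferred from the combination data. Fitness is OD595 at entry into stationary phase divided by the plate's robust no-drug mean, capped at 1, and the score is summarised by quartiles across technical, biological and donor/recipient replicates.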

S. aureus DSM 20231 [4] = assay: as above
Method in brief: as §2

S. aureus Newman [5] = assay: as above
Method in brief: as §2

S. pneumoniae D39V [6] = assay: as above
Method in brief: as §2
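Throughout, for Bliss interaction score (quartile over a dose matrix): first quartile when negative (synergy) and third quartile when positive (antagonism).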

CCCCCCCCCC(=O)N[C@@H](Cc1c[nH]c2ccccc12)C(=O)N[C@H](CC(N)=O)C(=O)N[C@@H](CC(=O)O)C(=O)N[C@@H]1C(=O)NCC(=O)N[C@@H](CCCN)C(=O)N[C@@H](CC(=O)O)C(=O)N[C@H](C)C(=O)N[C@@H](CC(=O)O)C(=O)NCC(=O)N[C@H](CO)C(=O)N[C@@H]([C@H](C)CC(=O)O)C(=O)N[C@@H](CC(=O)c2ccccc2N)C(=O)O[C@@H]1C [Daptomycin] + Cn1nnc(-c2ccc(-c3ccc(N4C[C@H](CO)OC4=O)cc3F)cn2)n1 [Tedizolid]
fitness, S. aureus DSM 20231 [1], one replicate
Settings	partner 0.0625 µg/mL	partner 0.125 µg/mL	partner 0.25 µg/mL
first compound 0.125 µg/mL	0.918	0.765	0.354
first compound 0.25 µg/mL	0.894	0.762	0.375

fitness
Settings	partner 0.03125 µg/mL	partner 0.0625 µg/mL	partner 0.125 µg/mL	partner 0.25 µg/mL	partner 0.5 µg/mL
S. aureus DSM 20231 [1], first compound 0.5 µg/mL	–	0.896	0.832	0.322	–
S. aureus DSM 20231 [1], first compound 1 µg/mL	–	0.907	0.78	0.293	–
S. aureus DSM 20231 [1], first compound 2 µg/mL	–	0.896	0.677	0.389	–
S. aureus Newman [2], first compound 0.125 µg/mL	–	0.977	0.914	–	–
S. aureus Newman [2], first compound 0.25 µg/mL	–	0.97	0.879	–	–
S. aureus Newman [2], first compound 0.5 µg/mL	–	0.964	0.914	–	–
S. pneumoniae D39V [3], first compound 1 µg/mL	0.916	0.942	0.619	0.23	0.0913
S. pneumoniae D39V [3], first compound 2 µg/mL	0.917	0.905	0.625	0.245	0.0924
S. pneumoniae D39V [3], first compound 4 µg/mL	0.93	0.966	0.643	0.256	0.0875

Settings	Bliss interaction score
B. subtilis 168	0.0472
S. aureus DSM 20231 [4]	0.0665
S. aureus Newman [5]	0.0584
S. pneumoniae D39V [6]	-0.141

CO/N=C(\C(=O)N[C@@H]1C(=O)N2C(C(=O)[O-])=C(C[N+]3(C)CCCC3)CS[C@H]12)c1csc(N)n1 [Cefepime] + CN[C@H](CC(C)C)C(=O)N[C@H]1C(=O)N[C@@H](CC(N)=O)C(=O)N[C@H]2C(=O)N[C@H]3C(=O)N[C@H](C(=O)N[C@H](C(=O)O)c4cc(O)cc(O)c4-c4cc3ccc4O)[C@H](O)c3ccc(c(Cl)c3)Oc3cc2cc(c3O[C@@H]2O[C@H](CO)[C@@H](O)[C@H](O)[C@H]2O[C@H]2C[C@](C)(N)[C@H](O)[C@H](C)O2)Oc2ccc(cc2Cl)[C@H]1O [Vancomycin]
Settings	fitness
S. aureus DSM 20231 [1], first compound 0.125 µg/mL, partner 0.1875 µg/mL	0.872
S. aureus DSM 20231 [1], first compound 0.125 µg/mL, partner 0.375 µg/mL	0.868
S. aureus DSM 20231 [1], first compound 0.125 µg/mL, partner 0.75 µg/mL	0.936
S. aureus DSM 20231 [1], first compound 0.25 µg/mL, partner 0.1875 µg/mL	0.917
S. aureus DSM 20231 [1], first compound 0.25 µg/mL, partner 0.375 µg/mL	0.902
S. aureus DSM 20231 [1], first compound 0.25 µg/mL, partner 0.75 µg/mL	0.885
S. aureus DSM 20231 [1], first compound 0.5 µg/mL, partner 0.1875 µg/mL	0.883
S. aureus DSM 20231 [1], first compound 0.5 µg/mL, partner 0.375 µg/mL	0.864
S. aureus DSM 20231 [1], first compound 0.5 µg/mL, partner 0.75 µg/mL	0.906
S. aureus Newman [2], first compound 0.125 µg/mL, partner 0.1875 µg/mL	0.945
S. aureus Newman [2], first compound 0.125 µg/mL, partner 0.375 µg/mL	0.946
S. aureus Newman [2], first compound 0.125 µg/mL, partner 0.75 µg/mL	0.922
S. aureus Newman [2], first compound 0.25 µg/mL, partner 0.1875 µg/mL	0.879
S. aureus Newman [2], first compound 0.25 µg/mL, partner 0.375 µg/mL	0.867
S. aureus Newman [2], first compound 0.25 µg/mL, partner 0.75 µg/mL	0.858
S. aureus Newman [2], first compound 0.5 µg/mL, partner 0.1875 µg/mL	0.791
S. aureus Newman [2], first compound 0.5 µg/mL, partner 0.375 µg/mL	0.802
S. aureus Newman [2], first compound 0.5 µg/mL, partner 0.75 µg/mL	0.774
S. pneumoniae D39V [3], first compound 0.007 µg/mL, partner 0.125 µg/mL	0.992
S. pneumoniae D39V [3], first compound 0.007 µg/mL, partner 0.25 µg/mL	0.807
S. pneumoniae D39V [3], first compound 0.007 µg/mL, partner 0.5 µg/mL	0.0222
S. pneumoniae D39V [3], first compound 0.0078 µg/mL, partner 0.03125 µg/mL	0.977
S. pneumoniae D39V [3], first compound 0.0078 µg/mL, partner 0.0625 µg/mL	0.884
S. pneumoniae D39V [3], first compound 0.0078 µg/mL, partner 0.125 µg/mL	0.694
S. pneumoniae D39V [3], first compound 0.014 µg/mL, partner 0.125 µg/mL	0.944
S. pneumoniae D39V [3], first compound 0.014 µg/mL, partner 0.5 µg/mL	0.029
S. pneumoniae D39V [3], first compound 0.0155 µg/mL, partner 0.03125 µg/mL	0.879
S. pneumoniae D39V [3], first compound 0.028 µg/mL, partner 0.125 µg/mL	0.585
S. pneumoniae D39V [3], first compound 0.028 µg/mL, partner 0.5 µg/mL	0.0343
S. pneumoniae D39V [3], first compound 0.031 µg/mL, partner 0.0625 µg/mL	0.308
S. pneumoniae D39V [3], first compound 0.031 µg/mL, partner 0.125 µg/mL	0.269

Settings	Bliss interaction score
B. subtilis 168	-0.154
S. aureus DSM 20231 [4]	0.0422
S. aureus Newman [5]	-0.0634
S. pneumoniae D39V [6]	-0.121

CO/N=C(\C(=O)N[C@@H]1C(=O)N2C(C(=O)[O-])=C(C[N+]3(C)CCCC3)CS[C@H]12)c1csc(N)n1 [Cefepime] + Cn1nnc(-c2ccc(-c3ccc(N4C[C@H](CO)OC4=O)cc3F)cn2)n1 [Tedizolid]
fitness
Settings	partner 0.03125 µg/mL	partner 0.0625 µg/mL	partner 0.125 µg/mL	partner 0.25 µg/mL	partner 0.5 µg/mL
S. aureus DSM 20231 [1], first compound 0.125 µg/mL	–	0.879	0.804	0.692	–
S. aureus DSM 20231 [1], first compound 0.25 µg/mL	–	0.796	0.738	0.601	–
S. aureus DSM 20231 [1], first compound 0.5 µg/mL	–	0.844	0.797	0.69	–
S. aureus Newman [2], first compound 0.125 µg/mL	–	0.858	0.837	–	–
S. aureus Newman [2], first compound 0.25 µg/mL	–	0.81	0.773	–	–
S. aureus Newman [2], first compound 0.5 µg/mL	–	0.728	0.717	–	–
S. pneumoniae D39V [3], first compound 0.007 µg/mL	–	–	0.953	0.642	0.129
S. pneumoniae D39V [3], first compound 0.0078 µg/mL	0.986	0.983	0.879	–	–
S. pneumoniae D39V [3], first compound 0.014 µg/mL	–	–	0.95	0.626	0.149
S. pneumoniae D39V [3], first compound 0.0155 µg/mL	0.969	0.974	0.895	–	–
S. pneumoniae D39V [3], first compound 0.028 µg/mL	–	–	0.937	0.652	0.105
S. pneumoniae D39V [3], first compound 0.031 µg/mL	0.971	0.948	0.888	–	–

Settings	Bliss interaction score
B. subtilis 168	0.12
S. aureus DSM 20231 [4]	0.122
S. aureus Newman [5]	-0.0634
S. pneumoniae D39V [6]	0.237

CO/N=C(\C(=O)N[C@@H]1C(=O)N2C(C(=O)[O-])=C(C[N+]3(C)CCCC3)CS[C@H]12)c1csc(N)n1 [Cefepime] + CCN(CC)CCOC(=O)c1ccc(N)cc1 [Procaine]
fitness
Settings	first compound 0.007 µg/mL	first compound 0.014 µg/mL	first compound 0.028 µg/mL	first compound 0.125 µg/mL	first compound 0.25 µg/mL	first compound 0.5 µg/mL
S. aureus DSM 20231 [1], partner 171 µg/mL	–	–	–	0.95	0.896	0.921
S. aureus Newman [2], partner 85.5 µg/mL	–	–	–	0.913	0.855	0.801
S. aureus Newman [2], partner 171 µg/mL	–	–	–	0.879	0.874	0.699
S. aureus Newman [2], partner 342 µg/mL	–	–	–	0.906	0.833	0.77
S. pneumoniae D39V [3], partner 85.5 µg/mL	≥ 1	≥ 1	0.974	–	–	–
S. pneumoniae D39V [3], partner 171 µg/mL	≥ 1	≥ 1	0.948	–	–	–
S. pneumoniae D39V [3], partner 342 µg/mL	≥ 1	0.999	0.955	–	–	–

fitness, S. pneumoniae D39V [3], one replicate
Settings	first compound 0.0078 µg/mL	first compound 0.0155 µg/mL	first compound 0.031 µg/mL
partner 85.5 µg/mL	≥ 1	0.943	0.244
partner 171 µg/mL	≥ 1	≥ 1	0.481
partner 342 µg/mL	≥ 1	≥ 1	0.635

Settings	Bliss interaction score
B. subtilis 168	0.0389
S. aureus DSM 20231 [4]	-0.0573
S. aureus Newman [5]	-0.0735
S. pneumoniae D39V [6]	0.0421
